As a reminder, the mass density is the mass of a sample divided by its volume.

The data set in a line: wn = mass fraction of the nth substance listed. The note with it: 100 kPa, Liquid, Pycnometric method.

Numbers after ± are expanded uncertainties.

Take `O=P([O-])(O)O.[K+]` [monopotassium phosphate] + O: the mass density runs as follows: (288.15 K, w1 = 0.1686) 1126.4 ± 2.6 kg/m3; (318.15 K, w1 = 0.2685) 1204.6 ± 2.8 kg/m3.
Consider `O=P([O-])(O)O.[Na+]` [sodium dihydrogen phosphate] + O, for which the mass density runs as follows: (288.15 K, w1 = 0.436) 1388.4 ± 3.4 kg/m3; (318.15 K, w1 = 0.5992) 1573.3 ± 3.8 kg/m3.

The values above are taken from the NIST ThermoML archive (doi:10.1021/acs.jced.7b00020).
